Literature values as cited in patent US7265142B2, “Materials and methods for the treatment of hypertension and angina” (ARYx Therapeutics, priority 2001, dated 2007).

Conditions: background statement; patients switched from mibefradil to dihydropyridine CCBs

half-life: up to 24 hours
Compound: COCC(=O)O[C@]1(CCN(C)CCCc2nc3ccccc3[nH]2)CCc2cc(F)ccc2[C@@H]1C(C)C [mibefradil]
